What was measured:
SARS-CoV-2 = assay: microbe, parasite or virus in culture; type: cell-based; conditions: Severe acute respiratory syndrome coronavirus 2
COVID-19 = COVID-19 patients, ref Beigel et al., 2020, cited from earlier work
SARS-CoV-2 3CLpro = SARS-CoV-2 3CLpro (Severe acute respiratory syndrome coronavirus 2, UniProt P0DTD1); type: biochemical; conditions: read-out: 3CLpro IC50
3CLpro = 3CLpro (Severe acute respiratory syndrome coronavirus 2, UniProt P0DTD1); type: biochemical, SARS-CoV-2

CCC(CC)COC(=O)[C@H](C)N[P@](=O)(OC[C@H]1O[C@@](C#N)(c2ccc3c(N)ncnn23)[C@H](O)[C@@H]1O)Oc1ccccc1 [Remdesivir]
EC50 (SARS-CoV-2): 1.84 µM
recovery (COVID-19; reduced from 15 days): 11 days
effect on mortality (COVID-19): no significant effect

COC(=O)c1c(C)[nH]c(C(=O)COn2nnc3ccc(S(=O)(=O)N(C)C)cc32)c1C [Compound 12]
IC50 (SARS-CoV-2 3CLpro): 1.32 µM
IC50 (3CLpro; read-out: FRET IC50): 0.35 µM

COc1ccc(-c2nc(NC(=O)c3ccc(C)c(F)c3)n[nH]2)cc1OC [Compound 30]
FRET IC50 (3CLpro): high fluorescent signals
